The values that follow come from patent US6919299B2, “Synergistic herbicidal compositions” (Bayer CropScience GmbH, priority 2001, dated 2005).

Type in all cases: in vivo
The test system of one test is Polygonum convolvulus. In words: Outdoor post-emergence herbicidal trial, POLCO. As to conditions: Example B.V, outdoors. As to the method:
(§1) Outdoors, crop plants were grown on plots of a size of from 5 to 10 m^2 on various soils and under various climatic conditions, and the natural presence of harmful plants and/or their seeds in the soil was utilized for the experiments. The treatment with the compositions according to the invention or the herbicides A and B applied individually was carried out after emergence of the harmful and the crop plants, in general at the 2- to 4-leaf stage. The active compounds or active compound combinations, formulated as WG, WP or EC, were applied by the post-emergence method. After 2 to 8 weeks, visual evaluation was carried out in comparison with an untreated comparative group. […] In addition, the herbicidal activities of the compositions according to the invention exceed the expected values according to Colby.
(§2) If the observed activity values of the mixtures already exceed the formal sum of the values for the trials with individual applications, they also exceed the expected value according to Colby which is calculated using the following formula (cf. S. R. Colby; in Weeds 15 (1967) pp. 20 to 22): E=A+B−(A×B/100)
(§3) The figures denote: • A, B=Activity of components A and B in percent, at a dosage of a and b gram of ai/ha, respectively. • E=Expected value in % at a dosage of a+b gram of ai/ha.

A further test concerns Matricaria spec. Kind of test: Outdoor post-emergence herbicidal trial, MATCH. As to conditions: Example B.V, outdoors. As to the method:
as §1, §2, §3

Another test has as its system Amaranthus retroflexus. In words: Outdoor post-emergence herbicidal trial, AMARE. The settings on record: Example B.VI, outdoors. As to the method:
as §1, §2, §3

For the next test, the system named is Sorghum halepense. In words: Outdoor post-emergence herbicidal trial, SORHA. As to conditions: Example B.VII, outdoors. As to the method: as §1, §2, §3
The next test relates to Portulaca oleracea. In words: Outdoor post-emergence herbicidal trial, POROL. As to conditions: Example B.VI, outdoors. As to the method: as §1, §2, §3
A further test concerns Digitaria sanguinalis. Kind of test: Outdoor post-emergence herbicidal trial, DIGSA. The settings on record: Example B.VII, outdoors. As for the experimental part:
as §1, §2, §3

The subject of the next test is Abutilon theophrasti. Kind of test: Outdoor post-emergence herbicidal trial, ABUTH. As to conditions: outdoors. As to the method:
as §1, §2, §3

For another test, the system named is Papaver rhoeas. In words: Outdoor post-emergence herbicidal trial, PAPRH. The settings on record: Example B.I, outdoors. As for the experimental part: as §1, §2, §3
In the next test the test system is Galium aparine. Kind of test: Outdoor post-emergence herbicidal trial, GALAP. As to conditions: Example B.I, outdoors. As to the method:
as §1, §2, §3

For another test, the system named is Setaria faberi. In words: Outdoor post-emergence herbicidal trial, SETFA. As to conditions: Example B.II, outdoors. As to the method: as §1, §2, §3
The subject of the next test is Brassica napus. Kind of test: Outdoor post-emergence herbicidal trial, BRAPP. As to conditions: Example B.II, outdoors. As to the method: as §1, §2, §3
In the next test the test system is Echinocloa crus galli. In words: Outdoor post-emergence herbicidal trial, ECHCG. The settings on record: outdoors. As for the experimental part: as §1, §2, §3
Where [1] appears, read: Example B.III, B2.2 840 g ai/ha.

In the case of `N#Cc1cc(Br)c(O)c(Br)c1` [Component B2.3, bromoxynil], the figures for the “found (herbicidal activity)” value in the test on Polygonum convolvulus (B2.3 100 g ai/ha) and in the test on Matricaria spec (B2.3 100 g ai/ha) were 45% and 55%, respectively.
Take `COc1cc(OC)nc(NC(=O)NS(=O)(=O)c2ncccc2C(=O)N(C)C)n1` [Component B1.9, nicosulfuron]: the “found (herbicidal activity)” value turned out to be 90% in the test on Amaranthus retroflexus (B1.9 40 g ai/ha), 62% with Sorghum halepense (B1.9 40 g ai/ha), 0% with Portulaca oleracea (B1.9 40 g ai/ha) and 50% in the test on Digitaria sanguinalis (B1.9 40 g ai/ha).
Take `CS(=O)(=O)c1ccc(C(=O)C2C(=O)CCCC2=O)c(Cl)c1COCC(F)(F)F` [Component A, 2-[2-chloro-3-(2,2,2-trifluoroethoxymethyl)-4-methylsulfonylbenzoyl]cyclohexane-1,3-dione]: the “found (herbicidal activity)” value in the test with Abutilon theophrasti (Example B.III, A 100 g ai/ha) came out at 75%; in the test with Abutilon theophrasti (Example B.IV, A 100 g ai/ha), 75%; in the test with Papaver rhoeas (A 75 g ai/ha) it was 0%; with Galium aparine (A 75 g ai/ha), 50%; with Polygonum convolvulus (A 38 g ai/ha) it was 50%; with Amaranthus retroflexus (A 75 g ai/ha), 90%. Besides, the “found (herbicidal activity)” value in the test on Setaria faberi (A 100 g ai/ha) stood at 65%; with Brassica napus (A 100 g ai/ha), 68%; in the test on Sorghum halepense (A 75 g ai/ha), 50%; with Matricaria spec (A 38 g ai/ha), 45%; with Echinocloa crus galli (Example B.III, A 100 g ai/ha), 98%; in the test on Echinocloa crus galli (Example B.IV, A 100 g ai/ha), 98%. For the same molecule, the “found (herbicidal activity)” value with Portulaca oleracea (A 75 g ai/ha) was determined as 50%; in the test with Digitaria sanguinalis (A 75 g ai/ha), 46%.
With `CCNc1nc(Cl)nc(NC(C)C)n1` [Component B2.2, atrazine], the “found (herbicidal activity)” value is 20% in the test on Abutilon theophrasti (setting [1]); 20% in the test on Abutilon theophrasti (Example B.IV, B2.2 840 g ai/ha); 60% in the test with Papaver rhoeas (B2.2 200 g ai/ha); 30% in the test with Galium aparine (B2.2 200 g ai/ha); 5% in the test on Setaria faberi (B2.2 840 g ai/ha); 0% with Brassica napus (B2.2 840 g ai/ha). The “found (herbicidal activity)” value with Echinocloa crus galli (setting [1]) turned out to be 0%; in the test on Echinocloa crus galli (Example B.IV, B2.2 840 g ai/ha), 0%.
